Measurements taken from patent US12686687B2, “Compounds and uses thereof” (Foghorn Therapeutics Inc., priority 2019, dated 2026).

biological target: T1, Nanoluciferase-BRD9 fusion protein (3×FLAG-NLuc-BRD9) in SYO-1 cells (Homo sapiens, UniProt Q9H8M2); assay: SYO1 BRD9 NanoLuc degradation assay; type: cell-based; details: Table 6B; SYO-1 cells expressing 3×FLAG-NLuc-BRD9, 6 hours incubation, 1 μM top dose; read-out: SYO1 BRD9-NanoLuc degradation IC50
T1 construct: expressed in transfected cells; host or cells: SYO-1
T1 sequence (Q9H8M2 1-597): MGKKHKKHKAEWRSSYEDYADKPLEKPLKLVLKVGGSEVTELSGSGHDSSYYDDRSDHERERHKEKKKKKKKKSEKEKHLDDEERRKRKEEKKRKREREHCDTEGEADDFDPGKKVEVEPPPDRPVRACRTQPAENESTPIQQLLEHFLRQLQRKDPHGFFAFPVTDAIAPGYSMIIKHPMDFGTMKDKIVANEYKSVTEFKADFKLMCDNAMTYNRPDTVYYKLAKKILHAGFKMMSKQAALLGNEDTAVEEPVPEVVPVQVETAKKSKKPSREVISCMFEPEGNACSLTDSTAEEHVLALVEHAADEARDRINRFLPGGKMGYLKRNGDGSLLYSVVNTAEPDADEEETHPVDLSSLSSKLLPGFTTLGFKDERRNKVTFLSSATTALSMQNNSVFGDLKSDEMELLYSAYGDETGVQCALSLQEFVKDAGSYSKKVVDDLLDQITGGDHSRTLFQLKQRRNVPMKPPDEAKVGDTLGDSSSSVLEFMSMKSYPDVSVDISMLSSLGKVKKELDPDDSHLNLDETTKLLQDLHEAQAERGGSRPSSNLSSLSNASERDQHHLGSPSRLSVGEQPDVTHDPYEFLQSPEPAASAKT
Procedure: Procedure: A stable SYO-1 cell line expressing 3×FLAG-NLuc-BRD9 was generated. On day 0 cells were seeded in 30 μL media into each well of 384-well cell culture plates. The seeding density was 8000 cells/well. On day 1, cells were treated with 30 nL DMSO or 30 nL of 3-fold serially DMSO-diluted compounds (10 points in duplicates with 1 μM as final top dose). Subsequently plates were incubated for 6 hours in a standard tissue culture incubator and equilibrated at room temperature for 15 minutes. Nanoluciferase activity was measured by adding 15 μL of freshly prepared Nano-Glo Luciferase Assay Reagent (Promega N1130), shaking the plates for 10 minutes and reading the bioluminescence using an EnVision reader. • Results: The Inhibition % was calculated using the following formula: % Inhibition=100×(LumHC−LumSample)/(LumHC−LumLC). DMSO treated cells are employed as High Control (HC) and 1 μM of a known BRD9 degrader standard treated cells are employed as Low Control (LC).

Row | DC50 [nM] | SMILES
1 | > 100 | COc1cc(-c2cn(C)c(=O)c3cc(C(=O)NCC4CC5(CCN(C(=O)CCN6CCN(c7ccc8c(c7)C(=O)N(C7CCC(=O)NC7=O)C8=O)CC6)CC5)O4)sc23)cc(OC)c1CN(C)C (stereo not drawn) [Compound D61]
2 | < 10 | COc1cc(-c2cn(C)c(=O)c3cc(C(=O)NC4CC5(CCN(CCN6CCN(c7ccc8c(c7)C(=O)N(C7CCC(=O)NC7=O)C8=O)CC6)CC5)C4)sc23)cc(OC)c1CN(C)C (stereo not drawn) [Compound D41]
3 | < 10 | COc1cc(-c2cn(C)c(=O)c3cc(C(=O)NCC4CC5(CCN(CCCN6CCN(c7ccc8c(c7)C(=O)N(C7CCC(=O)NC7=O)C8=O)CC6)CC5)CO4)sc23)cc(OC)c1CN(C)C (stereo not drawn) [Compound D49]
4 | > 10 | COc1cc(-c2cn(C)c(=O)c3cc(NC4CCN(C(=O)CCCCOc5ccc6c(c5)C(=O)N(C5CCC(=O)NC5=O)C6=O)CC4)sc23)cc(OC)c1CN(C)C (stereo not drawn) [Compound D71]
5 | < 10 | COc1cc(-c2cn(C)c(=O)c3cc(C(=O)NC4CCN(CCCCCOc5ccc6c(c5)C(=O)N(C5CCC(=O)NC5=O)C6=O)CC4F)sc23)cc(OC)c1CN(C)C (stereo not drawn) [Compound D85]
6 | > 10 | Cn1cc(-c2cccc(C(F)(F)F)c2)c2sc(C(=N)NC3CCS(=O)(=O)N(CC(=O)NCCCCCCCCNc4cccc5c4C(=O)N(C4CCC(=O)NC4=O)C5=O)C3)cc2c1=O (stereo not drawn) [Compound D31]
7 | > 100 | COc1cc(-c2cn(C)c(=O)c3cc(C(=O)NC4C[C@@H]5CN(CCN6CCN(c7ccc8c(c7)C(=O)N(C7CCC(=O)NC7=O)C8=O)CC6)C[C@H]45)sc23)cc(OC)c1CN(C)C (stereo partly drawn) [Compound D64]
8 | < 10 | COc1cc(-c2cn(C)c(=O)c3cc(C(=O)NC4CCN(CCCCN5CCN(c6ccc7c(c6)C(=O)N(C6CCC(=O)NC6=O)C7=O)CC5)CC4)sc23)cc(OC)c1CN(C)C (stereo not drawn) [Compound D86]
9 | < 10 | COc1cc(-c2cn(C)c(=O)c3cc(C(=O)NC4CCN(C(C)=O)CC4)sc23)cc(OC)c1CN1CCC(CCN2CCN(c3ccc4c(c3)C(=O)N(C3CCC(=O)NC3=O)C4=O)CC2)CC1 (stereo not drawn) [Compound D27]
10 | > 100 | COc1cc(-c2cn(C)c(=O)c3cc(C(=O)NCC4CC5CN(C(=O)CCN6CCN(c7ccc8c(c7)C(=O)N(C7CCC(=O)NC7=O)C8=O)CC6)CC5C4)sc23)cc(OC)c1CN(C)C (stereo not drawn) [Compound D34]
11 | < 10 | COc1cc(-c2cn(C)c(=O)c3cc(C(=O)NC4CCC5CN(CCCN6CCN(c7ccc8c(c7)C(=O)N(C7CCC(=O)NC7=O)C8=O)CC6)CC54)sc23)cc(OC)c1CN(C)C (stereo not drawn) [Compound D37]
12 | < 10 | COc1cc(-c2cn(C)c(=O)c3scnc23)cc(OC)c1CN1CC(CN2CCC3(CC2)CN(c2ccc4c(c2)C(=O)N(C2CCC(=O)NC2=O)C4)C3)C1 (stereo not drawn) [Compound D20]
13 | < 10 | COc1cc(-c2cn(C)c(=O)c3cc(C(=O)NCC4CC45CCN(CCN4CCN(c6ccc7c(c6)C(=O)N(C6CCC(=O)NC6=O)C7=O)CC4)CC5)sc23)cc(OC)c1CN(C)C (stereo not drawn) [Compound D57]
14 | < 10 | COc1cc(-c2cn(C)c(=O)c3cc(C(=O)NC4CCN(C(=O)CN5CCN(c6ccc7c(c6)C(=O)N(C6CCC(=O)NC6=O)C7=O)CC5)CC4)sc23)cc(OC)c1CN(C)C (stereo not drawn) [Compound D77]

same assay, conditions: Table 6C; SYO-1 cells expressing 3×FLAG-NLuc-BRD9, 6 hours incubation, 1 μM top dose; read-out: SYO1 BRD9-NanoLuc degradation IC50

Row | DC50 [nM] | SMILES
15 | < 10 | COc1cc(-c2cn(C)c(=O)c3cc(C(=O)NC4CC5(CCN(c6ccc7c(c6)C(=O)N(C6CCC(=O)NC6=O)C7)CC5)C4)sc23)cc(OC)c1CN(C)C (stereo not drawn) [Compound D149]
16 | > 100 | COc1cc(-c2cn(C)c(=O)c3cc(C(=O)NC4CCN(C5CC6(C5)CN(c5ccc7c(c5)C(=O)N(C5CCC(=O)NC5=O)C7)C6)CC4(F)F)sc23)cc(OC)c1CN(C)C (stereo not drawn) [Compound D145]
17 | > 100 | COc1cc(-c2cn(C)c(=O)c3cc(C(=O)Nc4cccc(OC5CCC(=O)NC5=O)c4)sc23)cc(OC)c1CN(C)C (stereo not drawn) [Compound D95]
18 | < 10 | COc1cc(-c2cn(C)c(=O)c3ccsc23)cc(OC)c1C1CCN(c2ccc3c(c2)C(=O)N(C2CCC(=O)NC2=O)C3)C1 (stereo not drawn) [Compound D122]
19 | < 10 | COc1cc(-c2cn(C)c(=O)c3cc(C(=O)N[C@H]4CCN(c5ccc6c(c5)C(=O)N(C5CCC(=O)NC5=O)C6)CC4(F)F)sc23)cc(OC)c1CN(C)C (stereo partly drawn) [Compound D152]
20 | < 10 | COc1cc(-c2cn(C)c(=O)c3cc(C(=O)NC4CN(c5ccc6c(c5)C(=O)N(C5CCC(=O)NC5=O)C6)CC4(F)F)sc23)cc(OC)c1CN(C)C (stereo not drawn) [Compound D177]
21 | < 10 | COc1cc(-c2cn(C)c(=O)c3cc(C(=O)NC4CCN(c5ccc6c(c5)C(=O)N(C5CCC(=O)NC5=O)C6)CC4(F)F)sc23)cc(OC)c1CN(C)C (stereo not drawn) [Compound D165]
22 | > 1000 | COc1cc(-c2cn(C)c(=O)c3cc(C(=O)NC4CCN(C(=O)c5csc(C(=O)c6c[nH]c7ccccc67)n5)CC4(F)F)sc23)cc(OC)c1CN(C)C (stereo not drawn) [DD1]
23 | < 10 | COc1cc(-c2cn(C)c(=O)c3cscc23)cc(OC)c1CN1CCC2(CC1)CN(c1ccc3c(c1)C(=O)N(C1CCC(=O)NC1=O)C3)C2 (stereo not drawn) [Compound D216]
24 | < 10 | COc1cc(-c2cn(C)c(=O)c3cc(C(=O)NC4CN(c5ccc6c(c5)CN(C5CCC(=O)NC5=O)C6=O)CC4(F)F)sc23)cc(OC)c1CN(C)C (stereo not drawn) [Compound D180]
25 | < 10 | COc1cc(-c2cn(C)c(=O)c3ccsc23)cc(OC)c1C1CCN(c2ccc3c(c2)C(=O)N(C2CCC(=O)NC2=O)C3)CC1 (stereo not drawn) [Compound D123]
26 | < 10 | COc1cc(-c2cn(C)c(=O)c3ccsc23)cc(OC)c1CN1CCC2CN(c3ccc4c(c3)C(=O)N(C3CCC(=O)NC3=O)C4)CCC2C1 (stereo not drawn) [Compound D106]
27 | < 10 | COc1cc(-c2cn(C)c(=O)c3cc(C(=O)NC4CCN(CCN5CCN(c6ccc7c(c6)CN(C6CCC(=O)NC6=O)C7=O)CC5)CC4(F)F)sc23)cc(OC)c1CN(C)C (stereo not drawn) [Compound D196]
28 | < 10 | COc1cc(-c2cn(C)c(=O)c3sccc23)cc(OC)c1CN1CCC2(CC1)CN(c1ccc3c(c1)C(=O)N(C1CCC(=O)NC1=O)C3)C2 (stereo not drawn) [Compound D207]
29 | < 10 | COc1cc(-c2cn(C)c(=O)c3cc(C(=O)NC4CN(C5CCN(c6ccc7c(c6)CN(C6CCC(=O)NC6=O)C7=O)CC5)CC4(F)F)sc23)cc(OC)c1CN(C)C (stereo not drawn) [Compound D181]
30 | < 10 | COc1cc(-c2cn(C)c(=O)c3ccsc23)cc(OC)c1CN1CCC(CN2CCC3(CC2)CC(Oc2ccc4c(c2)C(=O)N(C2CCC(=O)NC2=O)C4=O)C3)CC1 (stereo not drawn) [Compound D189]
31 | > 10 | COc1cc(-c2c(C)n(C)c(=O)c3cc(C(=O)NC4CCN(CCN5CCN(c6ccc7c(c6)C(=O)N(C6CCC(=O)NC6=O)C7)CC5)CC4(F)F)sc23)cc(OC)c1CN(C)C (stereo not drawn) [Compound D171]
32 | > 1000 | COc1cc(-c2cn(C)c(=O)c3c(C)c(C(=O)NC4CCN(C5CCN(c6ccc7c(c6)C(=O)N(C6CCC(=O)NC6=O)C7)CC5)CC4(F)F)sc23)cc(OC)c1CN(C)C (stereo not drawn) [Compound D148]
33 | < 10 | COc1cc(-c2cn(C)c(=O)c3ncsc23)cc(OC)c1CN1CCC2(CC1)CN(c1ccc3c(c1)C(=O)N(C1CCC(=O)NC1=O)C3=O)C2 (stereo not drawn) [Compound D202]
34 | < 10 | COc1cc(-c2cn(C)c(=O)c3ccsc23)cc(OC)c1CN1[C@H](C)CN(c2ccc3c(c2)CN(C2CCC(=O)NC2=O)C3=O)C[C@H]1C (stereo partly drawn) [Compound D136]
35 | < 10 | COc1cc(-c2cn(C)c(=O)c3cc(C(=O)N[C@@H]4CCN(CCN5CCN(c6ccc7c(c6)C(=O)N(C6CCC(=O)NC6=O)C7)CC5)CC4(F)F)sc23)cc(OC)c1CN(C)C (stereo partly drawn) [Compound D166]
36 | < 10 | COc1cc(-c2cn(C)c(=O)c3cc(C(=O)NC4CCN(c5cccc(CN6CCC(=O)NC6=O)c5)CC4)sc23)cc(OC)c1CN(C)C [Compound D124]
